One assay concerns the target T1, adenosine A3 receptor (Rattus norvegicus, UniProt P28647).
T1 construct: expressed in transfected cells; host or cells: EBNA cells
T1 sequence (P28647 1-320): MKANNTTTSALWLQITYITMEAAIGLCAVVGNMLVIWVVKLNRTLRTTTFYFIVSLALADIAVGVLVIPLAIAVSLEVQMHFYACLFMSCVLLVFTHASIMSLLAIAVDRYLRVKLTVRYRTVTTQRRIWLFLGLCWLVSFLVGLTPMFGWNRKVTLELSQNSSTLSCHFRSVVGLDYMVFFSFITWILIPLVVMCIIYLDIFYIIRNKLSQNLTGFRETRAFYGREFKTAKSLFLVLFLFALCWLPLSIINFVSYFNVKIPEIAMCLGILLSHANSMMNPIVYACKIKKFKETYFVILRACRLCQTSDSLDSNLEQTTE
The assay can be described thus: Rat adenosine A3 receptor binding assay. To be noted: radioligand 125I AB-MECA, rat recombinant EBNA cells. How it is done: Adenosine A3 radioligand binding was performed as follows. Rat recombinant EBNA cells were used with 1 nM ^125I AB-MECA as ligand.

The target in another assay is T2, adenosine A1 (Rattus norvegicus, UniProt P25099).
T2 construct: Wistar rat (ca. 275 g) vas deferens were used; from tissue; host or cells: Wistar rat vas deferens
T2 sequence (P25099 1-326): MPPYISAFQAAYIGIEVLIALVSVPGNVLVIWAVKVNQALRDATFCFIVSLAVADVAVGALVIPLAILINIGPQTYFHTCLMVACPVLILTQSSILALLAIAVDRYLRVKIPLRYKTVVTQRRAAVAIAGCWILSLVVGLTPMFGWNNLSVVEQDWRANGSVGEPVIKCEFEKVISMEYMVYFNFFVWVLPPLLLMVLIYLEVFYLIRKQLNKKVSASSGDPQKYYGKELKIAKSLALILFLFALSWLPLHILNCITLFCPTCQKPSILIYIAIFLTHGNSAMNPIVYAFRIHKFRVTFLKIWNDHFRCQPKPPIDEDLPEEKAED
The assay can be described thus: Rat adenosine A1 tissue assay (vas deferens). More on the design: species or system Wistar rat. How it is done:
An adenosine A1 tissue assay was performed as follows to determine antagonist versus agonist functional activity. […] The vehicle used was 0.1% DMSO, the incubation buffer used was Krebs at pH 7.4, and the incubation time was 5 min at 32° C. The administration volume was 10 μL, the bath volume was 10 mL, and the time of assessment was 5 min using an isometric (gram changes) quantitation method. The criteria for functional agonism was a ≧50% reduction of neurogenic twitch relative to CHA response. The criteria for functional antagonism was a ≧50% inhibition of CHA-induced relaxation.

The structures appear in SMILES notation.

Broadly, the Kd is the free concentration of one partner at which half of the binding sites on the other are occupied at equilibrium, for simple one-to-one binding.

Consider `CNC(=O)[C@H]1O[C@@H](n2cnc3c(NCc4ccc(N)cc4)ncnc32)[C@H](O)[C@@H]1O` [AB-MECA], for which the Kd on adenosine A3 receptor was determined as 1.3 nM.
As for `OC[C@H]1O[C@@H](n2cnc3c(NC4CCCCC4)ncnc32)[C@H](O)[C@@H]1O` [CHA, N6-(cyclohexyl)adenosine], the agonist reference response at adenosine A1 (0.3 μM) is reported as 100%.
At adenosine A1 (10 nM), `CCCn1c(=O)c2[nH]c(C3CCCC3)nc2n(CCC)c1=O` [DPCPX, 8-cyclopentyl-1,3-dipropylxanthine] returned an antagonist reference response of 87%.

The values are drawn from patent US20050165232A1, “Phenyl substituted imidaopyridines and phenyl substituted benzimidazoles” (priority 2002, published 2005).
